# “Also recorded” adds a separate entry of the source.
# What was measured:
# human PPARα = molecular target: T1, human PPARα (Homo sapiens, UniProt Q07869); assay: PPARα luciferase assay; format: cell-based; conditions: CV-1 cells, 1.3 μM, 24 hours after the addition; FIG. 6 and FIG. 7
# T1 construct: expressed in transfected cells; host or cells: CV-1 cells
# T1 sequence (Q07869 239-466 limits assumed): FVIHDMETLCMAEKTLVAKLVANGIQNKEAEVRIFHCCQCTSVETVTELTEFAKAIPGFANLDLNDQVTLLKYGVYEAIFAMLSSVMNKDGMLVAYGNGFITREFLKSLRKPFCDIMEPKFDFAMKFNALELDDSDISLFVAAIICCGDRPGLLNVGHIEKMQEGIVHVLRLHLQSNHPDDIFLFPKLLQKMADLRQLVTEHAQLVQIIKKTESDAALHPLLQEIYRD
# Protocol: The PPARα activity of koji extract 1 was evaluated by PPARα luciferase assay. The assay was performed by a method as previously described (T. Goto et al., Biochemical and Biophysical Research Communications 337(2005) 440-445).
# Specifically, CV-1 cells that were transfected with p4×UASg-tk-luc (reporter plasmid), pM-hPPARα (expression vector for DNA-binding domain of GAL4 and ligand-binding domain of human PPARα for chimeric protein), pRL-CMV (internal control for normalizing transfection efficiency) and Lipofectamine™ Reagent. The cells were cultured in a DMEM culture medium containing 10% FBS and penicillin/streptomycin (10 mg/mL).
# The CV-1 cells were transfected with the vector with Lipofectamine and cultured for 24 hours. Then, the medium was replaced with a medium added with 0.1 mg/mL, 0.5 mg/mL or 5 mg/mL of the concentrated koji extract 1 with 70% ethanol (dilution rate: 50 times), respectively, and the CV-1 cells were further cultured for 24 hours. The measurement of luciferase activity was performed by using Dual-Luciferase(R) Reporter Assay System (Promega) and a luminometer (MicroLumat Plus, Berthold Japan Co., Ltd.) according to the protocols of the reagent and the luminometer.
# As a positive control, a medium added with […] of a known PPARα agonist, GW-7647 (2-[4-[2-[1-(4-cyclohexylbutyl)-3-cyclohexylureido]ethyl]phenylthio]isobutyric acid) was used. […]
# [1] = system: mouse primary-cultured hepatocytes; assay: TG accumulation in mouse primary-cultured hepatocytes (TG kit); format: cell-based; conditions: 24 hours, 500 μM oleic acid medium, vs. negative control (CT+), FIG. 8
# Protocol: The effect on the accumulation of triglyceride ([…]) of a koji extract was evaluated by using mouse primary-cultured hepatocytes and koji extract 1 used in Example 1.
# Primary-cultured hepatocytes were prepared from hepatocytes separated from C57BL/6J mice (6 week old, male), and were seeded in a 12-well plate (2×10^5 cells/ml). After confirming the attachment of the cells to the plate at 3-5 hours after the seeding, the medium was replaced with a serum-free medium (low-glucose DMEM, 1% P/S, 500 μM oleic acid, 20 μg/mL BSA). At this time, koji extract 1 was added in an amount of 0.1 mg/mL or 1 mg/mL. As a positive control, a medium added with GW-7647 ([…]) was used.
# At 24 hours after the addition, the amount of TG accumulation of the primary-cultured hepatocytes was measured with a TG kit (Wako). […] The error bar refers to SE (n=4), * is p<0.05, ** is p<0.01 (vs. control).
# The effect on triglyceride (TG) accumulation of 9-HODE:10E,12E was evaluated by using mouse primary-cultured hepatocytes.
# Primary-cultured hepatocytes were prepared from hepatocytes separated from C57BL/6J mice (6 week old, male), and seeded in a 12-well plate (2×10^5 cells/ml). […]
# At 24 hours after the addition, the accumulation amount of TG was measured by using a TG kit (Wako). […]
smiles,measurement,setting,value
"CCCCC/C=C/C=C/C(O)CCCCCCCC(=O)O (stereo not drawn) [9-HODE:10E,12E, 9-hydroxy-10,12-octadecadienoic acid]",PPARα activity,human PPARα,remarkably high; also recorded: relatively high
same,accumulation amount of TG,[1]; 3 μM,significant decrease
same,accumulation amount of TG,[1]; 10 μM,significant decrease

# Reference: US10702492B2, “PPARα activator, pharmaceutical composition, food and drink, food additive, supplement and method of manufacturing the same” (Marukome Co., Ltd., priority 2015, dated 2020)
